Measured values as given in patent US9962465B2, “Amelogenin-chitosan hydrogel for dentin hypersensitivity” (UNIVERSITY OF SOUTHERN CALIFORNIA, priority 2015, dated 2018).

Legend:
[1] = Nanoindentation test of the newly regenerated layer (modulus, hardness); parameters: species or system Human; conditions: for mechanical properties of the newly formed layer compared with healthy dentin: peptide only treatment; for surface hardness of dentin lesions: peptide only, 5 days
Description: Human third molars were sectioned transversally into 2 mm thick slices at the mid-coronal region of the tooth. A window of sound dentin measuring 2×2 mm each was delineated by applying two coats of acid-resistant nail varnish on the tooth surfaces. To mimic carious lesions, the samples were immersed in a demineralizing solution (pH 4.6, 30 ml) at 37° C. for 3 days. Twenty μl of peptide only (LRAP, P32, P26) and peptide-chitosan hydrogel (200 μg/ml) were applied separately on the demineralized windows (2 applications: Days 1 & 5) and the tooth slices were immersed in artificial saliva (pH 7, 5 ml) at 37° C. for 5 and 10 days. The artificial saliva includes 1.2 mM Ca^2+, 0.2 mM Mg^2+ 0.7 mM H2PO4^−, 16 mM KCl, 4.5 mM NH4Cl and 50 mM Hepes in water. The artificial saliva solution (5 ml) was changed daily from days 1-10.
FIGS. 18A, 18B, 18C, and 18D provide nanoindentation test results showing changes in the modulus (A,B) and hardness (C, D) of the newly regenerated layer after being treated with peptide only and peptide-chitosan hydrogel for 5 and 10 days. Treatment with LRAP and P32 restored surface hardness of dentin lesions in 5 days.

[2] = TEM of peptide self-assembly; type: physicochemical; conditions: pH 7.4, HEPES buffer, 25° C.
From the text: (Ref: doi:10.1016/j.jsb.2011.07.016).

Sequence | mechanical properties of the newly formed layer compared with healthy dentin [1] | surface hardness of dentin lesions [1] | TEM assembly morphology [2]
MPLPSYEVLTPLKWPVHPMQPSTDKTKREEVD (Amelogenin-derived polypeptide) [Peptide P32, Artificial amelogenin-derived polypeptide] | superior mechanical properties than healthy dentin | restored | uniformly-dispersed spherical assemblies
MPLPPHPGHPGYINFSYEVLTPLKWYQSIRPPPLPPMLPDLTLEAWPSTDKTKREEVD (listed as Homo sapiens) [LRAP, leucine rich amelogenin polypeptide, alternatively spliced isoform of amelogenin] | superior mechanical properties than healthy dentin | restored | –
